PubChem BioAssay (NCI)
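Where inhibition never reached the appropriate level, the endpoint shown equals the highest concentration tested. Otherwise, values were interpolated linearly from a five-concentration, 48-hour dose response in 96-well plates. TGI is the concentration that stops growth completely.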

Key:
Test in all cases: NCI-60 cell line screen, 48 h
[1] = test system: RPMI-8226 leukemia
[2] = test system: NCI-H23 lung
[3] = test system: SW-620 colon
[4] = test system: SNB-19 CNS
[5] = test system: SNB-75 CNS
[6] = test system: MDA-MB-231 breast
[7] = test system: HT29 colon
[8] = test system: SK-OV-3 ovarian
[9] = test system: UACC-62 melanoma
[10] = test system: MCF7 breast
[11] = test system: A498 renal
[12] = test system: A549 NSCLC
[13] = test system: MALME-3M melanoma
[14] = test system: CAKI-1 renal
[15] = test system: HCC-2998 colon
[16] = test system: BT-549 breast
[17] = test system: COLO 205 colon
[18] = test system: K-562 leukemia
[19] = test system: TK-10 renal

Row | SMILES | TGI [1] [µM] | TGI [2] [µM] | TGI [3] [µM] | TGI [4] [µM] | TGI [5] [µM] | TGI [6] [µM] | TGI [7] [µM] | TGI [8] [µM] | TGI [9] [µM] | TGI [10] [µM] | TGI [11] [µM] | TGI [12] [µM] | TGI [13] [µM] | TGI [14] [µM] | TGI [15] [µM] | TGI [16] [µM] | TGI [17] [µM] | TGI [18] [µM] | TGI [19] [µM]
1 | CCN(CC)c1nc(=O)c(C(=O)C(C)(C)C)c(C(C)(C)C)o1 | > 100 | > 100 | > 100 | > 100 | > 100 | > 100 | > 100 | > 100 | > 100 | > 100 | > 100 | > 100 | > 100 | > 100 | > 100 | > 100 | > 100 | > 100 | > 100
2 | CC1=C(c2ccc(C)cc2)NC(=S)C(C)C(c2ccc(C)cc2)=N1 (stereo unspecified) | > 100 | > 100 | > 100 | > 100 | > 100 | > 100 | > 100 | > 100 | > 100 | > 100 | > 100 | > 100 | > 100 | > 100 | > 100 | > 100 | > 100 | > 100 | > 100
3 | Cc1ccc(C(=O)c2[nH]c(Nc3ccc(Cl)cc3)c(C(=S)Nc3ccccc3)c2N)cc1 | 18 | 9.1 | 37.7 | 21.9 | 7.14 | 24.2 | 16.8 | 27.3 | 28.1 | 33.6 | 27.9 | 5.29 | 19.8 | 30.6 | 5.31 | 20.5 | 2.84 | 24 | 16.8
4 | COC(=O)c1c2c(cc3c1CC1(C3)Cc3ccc4c(c3C1=O)CCC4)CCC2 (stereo unspecified) | > 72.6 | > 31.6 | > 100 | 62.1 | > 25.9 | 8.88 | 8.45 | > 77.4 | > 25.3 | > 66.7 | > 49.7 | > 100 | > 45.5 | 21.2 | 40.1 | > 42.9 |  | > 100 | > 35.3
5 | CC(=O)O[C@H]1CC[C@@]2(C)C(=CC[C@H]3[C@@H]4C/C(=C\c5ccncc5)[C@H](OC(C)=O)[C@@]4(C)CC[C@@H]32)C1 | 7.6 | 19.3 | 17.2 | 22.2 | 23.8 | 41.1 | 20.3 | 44.1 | 26.5 | 30.3 | 26.7 | 29.8 | 21.7 | 25.7 | 26.3 | 10.9 | 18.2 | 42.4 | 47.9
6 | O=C1CSC(c2ccccc2[N+](=O)[O-])N1c1ccc(-n2c(-c3ccccc3)nc3ccccc3c2=O)cc1 (stereo unspecified) | > 100 | > 100 | > 100 | > 100 | 34.9 | > 100 | > 100 | 28.3 | > 100 | > 100 | > 100 | > 100 | > 100 | > 100 | > 100 | > 100 | > 100 | > 100 | > 100
7 | Cc1ccc(S(=O)(=O)c2ccsc2NC(=O)c2ccccc2)cc1 | > 100 | > 31.6 | > 100 | > 100 | > 93.3 | > 79.4 | > 100 | > 100 | > 100 | > 100 | > 100 | > 100 | > 100 | 97.4 | > 100 | > 100 | > 100 | > 21.8 | > 100
8 | Cc1ccc(Cc2nn(C)c(=O)n2-n2cccc2)cc1 | > 100 |  | > 100 | > 100 | > 100 | > 100 | > 100 | > 100 | > 100 | > 100 | > 100 | > 100 | > 100 | > 100 | > 100 | > 100 | > 100 | > 100 | > 100
9 | Nc1ccc(-c2nc3ccccc3s2)cc1I | > 100 | > 100 | > 100 | > 100 | 99.4 | > 100 | > 100 | > 100 | > 100 | > 100 | > 90.8 | > 100 | > 100 | > 100 | > 100 | > 100 | > 100 | > 100 | > 100
10 | O=c1[nH]cnc2c1ncn2C1SC(CO)C(O)C1O (stereo unspecified) | > 100 | > 100 | > 100 | > 100 | > 100 | > 100 | > 100 | > 100 | > 100 | > 100 | > 100 | > 100 | > 100 | > 100 | > 100 | > 100 | > 100 | > 100 | > 100
11 | Cc1cn(C2CC(N=[N+]=[N-])C(CO)O2)c(=O)n(CCCCO)c1=O (stereo unspecified) | > 100 | > 100 | > 100 | > 100 | > 100 | > 100 | > 100 | > 100 | > 100 | > 100 | > 100 | > 100 | > 100 | > 100 | > 100 | > 100 | > 100 | > 100 | > 100
12 | O=C(Oc1ccc(OC(Oc2ccccc2)c2ccccc2)cc1)c1ccccc1 (stereo unspecified) | 24.1 | 24.4 | > 31.6 | > 31.6 | > 31.6 | > 31.6 | > 31.6 | > 31.6 | > 31.6 | > 31.6 | 23.8 | > 31.6 | 18.8 |  | 22 | > 31.6 | > 31.6 | > 31.6 | > 31.6
13 | O=C1Cc2c(-c3ccccc3)cc(-c3ccc4ccccc4c3)nc2-c2ccccc2N1 | > 100 | > 100 | > 100 | > 100 | 5.38 | 69.6 | 15.9 | > 100 | > 100 | > 100 | 49.6 | > 100 | 31.9 | 12.5 | > 100 | > 100 | > 100 | 9.41 | 29.4
14 | CCC(C)C(NC(=O)c1c2ccccc2nc2ccccc12)C(=O)O (stereo unspecified) | > 100 | > 100 | > 100 | > 100 | > 100 | > 100 | > 100 | > 100 | > 100 | > 100 | > 100 | > 100 | > 100 | > 100 | > 100 | 94.1 | > 100 | > 100 | > 100
15 | O=c1c2ccccc2n2n1Cc1ccccc1C2 | > 100 | > 100 | > 100 | > 100 | > 100 | > 100 | > 100 | > 100 | > 100 | > 100 | > 100 | > 100 | > 100 | > 100 | > 100 | > 100 | > 100 | > 100 | > 100
16 | CC(=O)OC(C#N)CC(C)(C)/[N+]([O-])=[N+](\[O-])C(C)(C)CC(C#N)OC(C)=O (stereo unspecified) | 40.2 | 34 | 30.2 | 67.6 | 63.8 | 36.1 | 65.8 | > 100 | 32.2 | > 100 | > 100 | > 100 | 47.4 | 30.7 | 31.6 | 36.6 | 32 | 26.2 | 31.2
17 | O=C(Nn1c(-c2ccccc2)nc2ccccc2c1=O)c1ccc(O)cc1 | > 100 | > 100 | > 100 | > 100 | > 100 | > 100 | > 100 | > 100 | > 100 | > 100 | > 100 | > 100 | > 100 |  | > 100 | > 100 | > 100 | > 100 | > 100
18 | CCOC(=O)c1nc2cc(C(F)(F)F)ccc2nc1Oc1ccc(C(=O)OC)cc1 | > 100 |  | > 100 | > 100 | > 100 | > 100 |  |  | > 100 | > 100 | > 100 | > 100 | > 100 | > 100 | > 100 | > 100 | > 100 | > 100 | > 100
19 | COc1ccc2[nH]cc(CN3CCC(CO)(c4ccccc4)CC3)c2c1 | 66 | > 100 | 47.8 | > 100 | 87.6 | 80.9 | > 100 | > 100 | 92.2 | 37.9 | > 100 | 57.3 | 62.3 |  | 46.2 | > 100 | 40.3 | 43.1 | > 100
20 | CCN(CC)C(=O)N[C@@H](Cc1ccccc1)C(=O)NC | > 100 | > 100 | > 100 | > 100 | > 100 | > 100 | > 100 | > 100 | > 100 | > 100 | > 100 | > 100 | > 100 | > 100 | > 100 | > 100 | > 100 | > 100 | 
21 | C=CCOCn1ccc(NC(=O)c2ccccc2)nc1=O | > 100 | > 100 | > 100 | > 100 | > 100 | > 100 | > 100 | > 100 | > 100 | > 100 | > 100 | > 100 | > 100 | > 100 | > 100 | > 100 | > 100 | > 100 | > 100
22 | Cc1cn(C2CC(N=[N+]=[N-])C(C(=O)O)O2)c(=O)[nH]c1=O (stereo unspecified) | > 100 | > 100 | > 100 | > 100 | > 100 | > 100 | > 100 | > 100 | > 100 | > 100 | > 100 | > 100 | > 100 | > 100 | > 100 | > 100 | > 100 | > 100 | > 100
23 | CSc1n[nH]c2n[nH]c(C)c12 | > 100 | > 100 | > 100 | > 100 | > 100 | > 100 | > 100 | > 100 | > 100 | > 100 | > 100 | > 100 | > 100 | > 100 | > 100 | > 100 | > 100 | > 100 | > 100
24 | CCCCC1=CC1(C#N)[N+](=O)[O-] (stereo unspecified) | > 100 | > 100 | > 100 | > 100 | > 100 | > 100 | > 100 | > 100 | > 100 | > 100 | > 100 | > 100 | > 100 | > 100 | > 100 | > 100 | > 100 | 66.6 | > 100
25 | O=[N+]([O-])c1cc(C(F)(F)F)ccc1S(=O)(=O)N[C@@H]1CCCC[C@H]1NS(=O)(=O)c1ccc(C(F)(F)F)cc1[N+](=O)[O-] | > 22.3 | 6.92 | 53.8 | > 31.6 | 7.46 | 8.02 | 22.7 | 71.7 | 13.4 | 5.2 | > 23.7 | > 31.3 | 8.05 | 10 | > 39.9 | 8.16 | 6.77 | > 36 | > 100
